Ends that are not written are not given here.
Assays:
[1] = tested on: HeLa cells expressing SNAPH2B; assay: Endosomal leakage efficiency with SNAP-Surface 488; conditions: 2.5 μM dTAT with 5 μM SNAP-Surface 488, 1 h
Experimental: HeLa cells were incubated with 5 μM SNAP-Surface® 488 for 1 h, washed and imaged. […] It should be noted that SNAP-Surface® 488 fluorescence is quenched (80%) before it reacts with the SNAP fusion tag.
HeLa cells were seeded in 8-well dishes, grown and washed as described in the prior section. Cells were then co-incubated with 5 M delivery peptide and with the cargo at the corresponding concentration for 1 h at 37° C. Cells were washed 3 times with PBS and nrL-15 and placed on the microscope. Images were acquired as described before. For transfection and expression of SNAP-H2B and TagCFP-mito, plasmids were mixed with Lipofectamine™ 2000 reagent in opti-MEM media and incubated at room temperature for 30 min. The DNA complex was added to previously seeded HeLa cells (80% confluent) on an 8-well dish and cells were kept at 37° C. for 24 h.

[2] = tested on: HeLa transfected with the pCALNL-GFP plasmid; type: cell-based; conditions: delivery peptide 5 μM in the presence of TAT-Cre 1 μM, 1 h
Experimental: The number of cells in the images was approximately the same as assessed by bright field microscopy (1,000 cells/experiment, experiments in triplicate, average and standard deviations represented). Scale bars, 100 μM.
To further confirm that functional proteins can penetrate cells upon incubation with dTAT, delivery of Cre recombinase was tested. In this assay, Cre induces recombination of a loxP-STOP-loxP sequence upstream of the egfp gene of a reporter plasmid.

[3] = tested on: Dorsal root ganglion F11 (DRG-F11) neuronal cells; assay: dTAT penetration into cells resistant to transfection; type: cell-based; conditions: 5 μM, 1 hour
Experimental: Dorsal root ganglion F11 (DRG-F11) neuronal cells are notoriously difficult to transfect. dTAT exposure was tested in DRG-F11 cells to determine whether the transfection difficulties also posed a barrier for dTAT. DRG-F11 cells were incubated for 1 hour with dTAT (5 μM).

[4] = tested on: HeLa, Neuro-2a and HDF cells; assay: Cell proliferation, MTT assay in several cell types; type: cell-based; conditions: 5 μM, 1 h; up to 36 h after incubation
Experimental: FIG. 12 illustrates that cells treated with dTAT proliferate at a rate identical to untreated cells. HeLa, Neuro-2a and HDF cells were incubated with 5 μM dTAT for 1 h or left untreated. Proliferation was assessed using a MTT assay for up to 36 h after incubation (150,000 cells/experiment, experiments in triplicates, average and standard deviations represented).
In order to determine cells that had compromised plasma membranes, cells were treated with SYTOX® Green (SYTOX® Blue in some cases) and Hoechst (Invitrogen, Carlsbad, Calif.). SYTOX® dyes are cell-impermeable and stain the DNA of cells with compromised plasma membranes. The Hoechst dye is cell permeable and stains the DNA of all cells. Images were acquired using the green and blue filter. The green and blue images were used to count cells with a blue or green stained nucleus. Image J was used to count the dead (green) and total cells (blue). Cytotoxicity was determined from the ratio of SYTOX® Green positive cells/total number of cells. […] After the incubation each sample was mixed and the absorbance at 600 nm was measured. […] A second control consisted of cells treated with the delivery peptide but to which no MTT was added to subtract the contribution of TMR from the measured absorbance. The absorbance of the negative control was subtracted from all samples.

[5] = tested on: neuronal cell line Neuro-2a and primary human dermal fibroblasts (HDF); assay: Cellular localization of dTAT in neuronal and primary cells; type: cell-based; conditions: 1 h incubation
Experimental: FIG. 11 illustrates the cellular localization of dTAT after 1 h incubation with neuronal cell line Neuro-2a (left panel) and primary human dermal fibroblasts (HDF) (right panel). Cells were incubated with dTAT, washed, and imaged with a 100× objective. […] FIG. 12 graphically illustrates the proliferation rate (absorbance in an MTT assay) of treated and untreated HeLa, Neuro-2a, and HDF cells.

[6] = tested on: HeLa cells; assay: Step-wise repeated delivery of DEAC-K9 and SNAP-Surface 488; type: cell-based; conditions: 5 μM dTAT + 5 μM DEAC-K9 1 h, then 5 μM dTAT + 5 μM SNAP-Surface 488 1 h
Experimental: To test this idea, the step-wise delivery of two different molecules (DEAC-K9 and SNAP-Surface® 488) was assessed. Cells were first incubated with dTAT (5 μM) and DEAC-K9 (5 μM) for 1 h. […] Twenty minutes later, cells were incubated with dTAT (5 μM) and SNAP-Surface® 488 (5 μM) for 1 h. […] Briefly, HeLa cells were first incubated with 5 μM dTAT and 5 μM DEAC-K9 for 1 h. Cells were then washed, incubated with 5 μM SNAP-Surface® 488 for 1 h and imaged.

[7] = tested on: HeLa or NIH 3T3 cells; assay: dTAT-mediated delivery of EGFP by co-incubation; type: cell-based; conditions: EGFP 10 μM and dTAT 5 μM, 1 h
Experimental: dTAT, DEAC-K9 and, SNAP-Surface® 488 are relatively small molecules. It was therefore addressed whether dTAT-mediated endosomal leakage could deliver large proteins into the cytosol of cells. For this assay, EGFP (26 kDa) was chosen as a model, since this protein is fluorescent only when properly folded. EGFP and dTAT were incubated for 1 h with cells and the protein distribution was examined by fluorescence. […] While protein degradation might take place during delivery, this assay establishes that a population of folded protein is delivered.
Images were acquired as described before.

(CK(TMR)TAT)2 (CK(TMR)RKKRRQRRRG; also: dimer) [dTAT, dimer of two CK(TMR)-TAT monomers linked via a disulfide bond between the N-terminal cysteine residues]
cytosolic release [1]: does not result in significant cytosolic release | percentage of EGFP+ cells [2]: 47% | penetration into the cytosol [3]: penetrates into the cytosol of DRG-F11 cells | proliferation of treated versus untreated cells [4]: nearly identical proliferation patterns | cellular localization of fluorescence [5]: cytosolic release | repeatability of dTAT-mediated delivery [6]: can be repeated | cells with EGFP distributed into the cytosol and nucleus [7]: more than 90% | toxicity during EGFP delivery [7]: without observable toxicity

Source: patent US9662404B2, “Compositions and methods for the delivery of molecules into live cells” (The Texas A&M University System, priority 2013, dated 2017)
